Measurements published in patent US20250186419A1, “DOSING REGIMENS FOR TREATING PAIN” (VERTEX PHARMACEUTICALS INCORPORATED, priority 2023, published 2025).
Entries after “also recorded” stand apart in the source; their conditions may differ.

How the values were obtained:
[1] = system: patients undergoing abdominoplasty; test: Study of Compound 1 in patients undergoing abdominoplasty (NCT05034952); assay type: in vivo, human
[2] = system: acute pain (surgical and non-surgical); test: Single-arm study of safety and effectiveness of Compound 1 for acute pain, surgical and non-surgical subjects (Example 7); assay type: in vivo, human; details: Compound 1 100 mg first dose, then 50 mg q12h
[3] = system: acute pain after an abdominoplasty; test: Randomized, double-blind, placebo-controlled, 3-arm study of Compound 1 in acute pain after an abdominoplasty (Example 6); details: Compound 1 100 mg first dose, then 50 mg q12 h, placebo 8 hours
[4] = system: acute pain after a bunionectomy; test: Randomized, double-blind, placebo-controlled, 3-arm study of Compound 1 in acute pain after a bunionectomy (Example 5); details: Compound 1 100 mg first dose, then 50 mg q12 h, placebo 8 hours
[5] = system: pain following bunionectomy; test: Randomized, double-blind, placebo-controlled, 5-arm study of Compound 1 in subjects with pain following bunionectomy (Example 4); details: for Mean SPID48: oral
Procedure: A randomized, double-blind, placebo-controlled, 5-arm, parallel-design study to evaluate the efficacy and safety of Compound 1 on acute surgical pain is conducted. Bunionectomy is a well-established, multi-dose, surgical, acute pain model. A randomized, double-blind study design was used to avoid observer bias and reduce symptoms or outcomes arising from the subjects' knowledge of treatment.
Male and female patients between the ages of 18 and 75 years (inclusive) with pain that is ≥4 on an 11-point Numeric Pain Rating Scale (NPRS) and is moderate or severe on the Verbal Categorical Rating Scale (VRS) after bunionectomy are included in the study.
Investigational Drug: Compound 1. The investigational drug was administered orally in 10 mg tablets. […] The investigational drug was administered every 12 hours (q12h). A low, mid, and high dosing regimen were tested. The first dose in the low dosing regime was 20 mg, and the subsequent doses were 10 mg g12h. The first dose in the mid dosing regime was 60 mg, and the subsequent doses were 30 mg g12h. The first dose in the high dosing regime was 100 mg, and the subsequent doses were 50 mg g12h.
The reference drug was administered orally in 5 mg/325 mg capsules, supplied as over-encapsulated 5 mg/325 mg tablets. The reference drug was administered in a dose of 5 mg/325 mg every 6 hours (q6h).
After a screening period, subjects receive a primary unilateral first metatarsal bunionectomy repair on Day minus one under regional anesthesia (Mayo and popliteal block). A continuous popliteal sciatic block infusion (0.2% ropivacaine) is started after surgery, and remains in place until approximately 3 AM on Day 1. After removal of the popliteal sciatic block, each subject is randomized when the subject requests the first dose of study drug for pain relief and reports pain ≥4 on the NPRS and moderate or severe pain on the VRS.
Randomization was stratified by site and baseline NPRS (<8 versus ≥8). To maintain the blind, all subjects receive the same number of capsules in a double-dummy design.
Compound 1 was administered every 12 hours (q12h). The final dose of Compound 1 is given 36 hours after the first dose.
Compound 1 placebo capsules are administered every 12 hours (q12h).
11-point (0 to 10) Numeric Pain Rating Scale: NPRS scores are frequently used in bunionectomy studies and are recognized by the FDA as a valid pain intensity measure. On the 11-point NPRS, a score of 0 denotes no pain, and a score of 10 denotes the worst pain intensity imaginable. Subjects reported their pain on the 11-point NPRS immediately before their first dose of the study drug (baseline NPRS score) and at intervals over 48 hour period (i.e. 0.5, 1, 1.5, 2, 3, 4, 5, 6, 8, 12, 16, 20, 24, 28, 32, 36, 40, 44, and 48 hours (±5 minutes)) after the first dose of the study drug. Pain intensity is also recorded on the NPRS immediately before each administration of rescue medication. Pain intensity scores that are collected within 4 hours after a dose of rescue medication are deemed missing, and the missing values are imputed as the intensity recorded immediately before the administration of rescue medication.
SPID-48 is the sum of the pain intensity difference (PID) over the 48 hour time period. A pain intensity score of 0 (no pain) to 10 (worse possible pain) is obtained before starting the study and throughout the 48 time period. The pain score at each assessment time is subtracted from the baseline pain score to provide the total sum score or SPID-48. A higher SPID-48 is better and indicates a reduction in pain intensity compared to the baseline score.
4-point Verbal Categorical Rating Scale: Subjects report their pain on the 4-point VRS (none, mild, moderate, or severe) immediately before their first dose of the study drug (baseline VRS).

[6] = system: painful diabetic peripheral neuropathy (DPN); test: Randomized, double-blind, active-controlled, dose-ranging, 4-arm study of Compound 1 in painful diabetic peripheral neuropathy (Example 8)
Excerpt: The study population included male and female subjects 18 through 80 years of age, inclusive, with presence of bilateral pain in lower extremities due to DPN for at least 1 year, and weekly average Numeric Pain Rating Scale (NPRS) pain score of ≥4.
Subjects who met eligibility criteria entered a 7-day Run-in Period to establish their baseline Numeric Pain Rating Scale (NPRS) pain score and Daily Sleep Interference Scale (DSIS) score. Subjects with a baseline average NPRS score of ≥4 points with limited variation (SD<25% of mean) were eligible for the 12-week Treatment Period followed by a Safety Follow-up Visit.
Randomization was stratified by sex (female and male) and body mass index (≥30 and <30 kg/m^2). To maintain the blind, all subjects received the same number of tablets once daily (qd) in the morning and the same number of capsules 3 times per day (tid) in a double-dummy design.
Acetaminophen was be permitted as a pain rescue medication as needed (prn) throughout the study. Subjects were permitted to take 500 mg of acetaminophen every 4 to 6 hours as needed, up to a maximum of 2500 mg in any 24-hour period.
The reference drug was administered orally in a 100 mg capsule tid.
From Day −7 through Week 12, subjects reported their average daily pain during the last 24 hours on the NPRS via e-diary; during the treatment period, the NPRS was completed in the morning before the first daily dose. Subjects also reported their current pain score before each administration of rescue medication. The NPRS scores from the daily e-diary, especially the change from baseline in the weekly average at Week 12, were used in the primary endpoint analysis, and the proportion of subjects with ≥30%, ≥50%, and ≥70% reduction in weekly average scores, especially at Week 12, as reported in the daily e-diary were used in the secondary endpoint analyses. For the primary endpoint, daily NPRS scores were averaged over a weekly period to reduce the impact of individual high or low pain scores.
Daily Sleep Interference Scale (DSIS): Pain frequently interferes with sleep, and sleep is important to quality of life. The FDA recommends evaluating the effect of analgesics on sleep. DSIS is commonly used in neuropathic pain studies and is assessed on an 11-point scale. The 11 point scale ranges from 0 (none) to 10 (severe). The DSIS was completed each morning before the first daily dose in an e-diary to describe how pain interfered with the subject's sleep. The change from baseline in the weekly average of DSIS, especially at Week 12, was used in the secondary endpoint analysis.
Patient Global Impression of Change (PGIC): The PGIC is commonly used in neuropathic pain studies, and the Initiative on Methods, Measurement, and Pain Assessment in Clinical Trials (IMMPACT) group recommends it as a core outcome measure for chronic pain studies and is thus evaluated in this study. There is some evidence that PGIC may be more sensitive in neuropathic pain studies than pain intensity assessments because it may assess additional quality of life measures. The assessment consists of a single item on a 7-point scale from 1 (very much improved) to 7 (very much worse). The PGIC was completed at selected study visits to quantify the change in subjects' overall status. The proportion of subjects categorized as improved on the PGIC assessment, especially at Week 12, was used in the secondary endpoint analysis.
Proportion of subjects using Rescue Medication and Total Medication Usage: Acetaminophen was permitted as a pain rescue medication as needed (prn) throughout the study.

[7] = Compound 1 combined dose groups, pregabalin 100 mg tid, 12 weeks

COc1c([C@H]2[C@H](C(=O)Nc3ccnc(C(N)=O)c3)O[C@@](C)(C(F)(F)F)[C@H]2C)ccc(F)c1F [Compound 1, (2R,3S,4S,5R)-4-[[3-(3,4-difluoro-2-methoxy-phenyl)-4,5-dimethyl-5-(trifluoromethyl)tetrahydrofuran-2-carbonyl]amino]pyridine-2-carboxamide]
Improvement in SPID48 [1]: statistically significant improvement in SPID48 | Patients reporting good, very good, or excellent on Patient Global Assessment (PGA) at end of treatment ([2]; all patients (256 subjects)): 83.2% | Patients reporting good, very good, or excellent on Patient Global Assessment (PGA) at end of treatment ([2]; non-surgical patients (34 subjects)): 91.2% | Patients reporting good, very good, or excellent on Patient Global Assessment (PGA) at end of treatment ([2]; surgical patients (222 subjects)): 82.0% | Serious adverse events related to study drug ([2]; up to 14 days): no serious adverse events were related to Compound 1 | Incidence of serious adverse events ([2]; up to 14 days, 256 subjects): 0.8% | Treatment discontinuations due to adverse events ([2]; up to 14 days, 256 subjects): 2.0% | Safety and tolerability ([2]; up to 14 days, surgical and non-surgical pain, 256 subjects): generally safe and well tolerated | Median time to ≥2-point reduction in NPRS from baseline [3]: 2 h | Median time to 2-point reduction in NPRS from baseline [4]: 4 h | Onset of action ([5]; Compound 1 high dose, 48 hour assessment): rapid and was sustained through the duration of assessment | Mean SPID48 ([5]; High-dose Compound 1: 100 mg first dose/50 mg every 12 hours, n = 60, NPRS 0 to 48 hours): 137.8 | Mean SPID48 difference from placebo ([5]; Low-dose Compound 1: 20 mg first dose/10 mg every 12 hours, n = 33): 11.9 | Mean SPID48 ([5]; Low-dose Compound 1: 20 mg first dose/10 mg every 12 hours, n = 33, NPRS 0 to 48 hours): 112.9 | Mean SPID48 difference from placebo ([5]; Mid-dose Compound 1: 60 mg first dose/30 mg every 12 hours, n = 62): −14.1 | Mean SPID48 ([5]; Mid-dose Compound 1: 60 mg first dose/30 mg every 12 hours, n = 62, NPRS 0 to 48 hours): 86.9 | Change from baseline at week 12 in weekly average of daily pain on the NPRS (LS Mean) ([6]; Compound 1 23 mg qd (low dose), painful DPN): −2.18 | Change from baseline at week 12 in weekly average of daily pain on the NPRS (LS Mean) ([6]; Compound 1 46 mg qd (mid dose), painful DPN): −2.11 | Change from baseline at week 12 in weekly average of daily pain on the NPRS (LS Mean) ([6]; Compound 1 69 mg qd (high dose), painful DPN): −2.26 | Reduction in pain from baseline (NPRS) ([6]; all three Compound 1 dose groups (23, 46, 69 mg qd), 12-week treatment, painful DPN): statistically significant and clinically meaningful reduction in pain from baseline; also recorded: significant mean reduction in pain from baseline that started from week 1 | Sleep (Daily Sleep Interference Scale, DSIS) at week 12 ([6]; all three Compound 1 dose groups (23, 46, 69 mg qd), painful DPN): improvement in sleep

CC(C)C[C@H](CN)CC(=O)O [Pregabalin, reference compound]
Incidence of dizziness (adverse event) [6, 7]: 9.3% | Incidence of peripheral edema (adverse event) [6, 7]: 5.6% | Incidence of weight increased (adverse event) [6, 7]: 7.4% | Change from baseline at week 12 in weekly average of daily pain on the NPRS (LS Mean) ([6]; Pregabalin 100 mg tid, painful DPN): −2.09 | Related adverse events ([6]; patients treated with Compound 1 (combined), patients treated with pregabalin 100 mg tid, 12 weeks): 27.8%
